# Results as given in patent US9732088B2, “C2-carbocyclic iminothiazine dioxides as BACE inhibitors, compositions, and their use” (Merck Sharp & Dohme Corp., priority 2014, dated 2017).
# pKi: −log10 of the molar value.
# Key:
# BACE-1 [1] = biological target: T1, BACE-1 (Homo sapiens (Human), UniProt P56817); settings: data reported in US′109; read-out: BACE-1 Ki (nM) (ii) Data reported in US′109; cited from earlier work
# Target sequence in this assay (P56817 46-501, species assumed): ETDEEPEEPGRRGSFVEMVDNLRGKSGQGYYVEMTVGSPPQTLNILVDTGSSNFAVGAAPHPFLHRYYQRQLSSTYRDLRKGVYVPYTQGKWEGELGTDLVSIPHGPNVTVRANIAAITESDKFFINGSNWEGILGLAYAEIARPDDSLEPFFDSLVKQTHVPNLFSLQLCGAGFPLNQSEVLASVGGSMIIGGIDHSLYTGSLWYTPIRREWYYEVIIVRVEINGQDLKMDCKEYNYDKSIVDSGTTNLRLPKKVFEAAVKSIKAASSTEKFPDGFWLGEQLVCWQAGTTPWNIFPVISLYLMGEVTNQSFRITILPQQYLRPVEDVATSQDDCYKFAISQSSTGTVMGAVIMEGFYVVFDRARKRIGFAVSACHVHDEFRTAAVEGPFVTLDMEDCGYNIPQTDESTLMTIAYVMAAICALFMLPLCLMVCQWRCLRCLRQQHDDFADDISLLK
# HepG2 cells = test: In Vitro Phospholipidosis Assay; type: cell-based; settings: 20 μM, 24 hours, normalized to DMSO
# Text: [formula] Assay 7: In Vitro Phospholipidosis Assay
# Drug-induced phospholipidosis (PL) is characterized by intracellular accumulation of phospholipids with lamellular bodies, and may result from impaired phospholipid metabolism in the lysosome (Anderson et al., 2006, FEBS Letter, 580, 5533-5540), and many compounds known to cause drug-induced PL are also associated with adverse drug reactions. Using a method described in the literature (Bhandari et al., 2008, Assay and Drug Dev. Tech., 6(3), 407-419), an in vitro cellular assay can provide data that can determine the PL potential of test compounds. In this assay, compounds that lower values for mean inclusion count of a fluorescent phospholipid (described below) versus control are associated with reduced potential for PL.
# HepG2 cells were dispensed into 96-well collagen I coated plates at an initial density of 2.0×10^5 cells in 200 μL complete culturing medium (MEM Media w/Earle's Balanced Salt Solution supplemented with 10 IU penicillin, 10 μg/mL streptomycin, and 10% heat inactivated fetal bovine serum). Cells were incubated overnight at 37° C. with 5% CO2, 89% humidity prior to treatment.
# A solution of fluorescently labeled phospholipid N-(7-nitrobenz-2-oxa-1,3-diazol-4-yl)-1,2-dihexadecanoyl-sn-glycero-3-phosphoethanolamine (NBD-PE) was prepared at a concentration of 10 mM in absolute ethanol. Dissolution of the NBD-PE was facilitated by sonication in a room temperature water bath for 30 minutes. NBD-PE medium was prepared by diluting NBD-PE stock to a final concentration of 50 μM in complete culturing medium, filtering (pore size, 0.22 μm) prior to use.
# Compound treatment stocks were prepared in dimethyl sulfoxide at 500× final concentrations. Working treatment solutions were prepared by diluting compound stocks into NBD-PE medium with DMSO serving as the vehicle control. Treatment concentration was 20 μM. Amiodarone ((2-{4-[(2-butyl-1-benzofuran-3-yl)carbonyl]-2,6-diiodophenoxy}ethyl)diethylamine) served as the assay positive control at the same concentration. All treatments were tested in triplicate for 24 hours.
# Following treatment, cultures were rinsed once with Hank's Balanced Salt Solution (HBSS) containing no phenol red. Cultures were then incubated for 30 minutes at 37° C. with […] Hoechst 33342 nuclear stain and […] cell tracker orange cytoplasm stain. After incubation, cells were rinsed once with HBSS and then fixed in 2% formalin solution.
# Cultures were imaged using the IN Cell Analyzer 2000 imaging system. One set of images were acquired with the 4× objective using the appropriate Hoechst filter settings to acquire a full-well cell count. Another set of images were acquired to evaluate treatment-related phospholipidosis with the 20× objective.
# Images were analyzed using custom algorithms created in the IN Cell Workstation software using NBD-PE inclusion count in the cell cytoplasm as and endpoint associated with phospholipidosis. Data were expressed as fold over control, normalized to the DMSO vehicle control response.
# [2] = biological target: soluble human BACE-1 catalytic domain (Homo sapiens (Human), UniProt P56817); test: BACE-1 Ki Assay (BACE-1 HTRF FRET Assay); type: biochemical; settings: Assay 1; Ki calculated from IC50 by Cheng-Prusoff
# soluble human BACE-1 catalytic domain, sequence (P56817 75-416): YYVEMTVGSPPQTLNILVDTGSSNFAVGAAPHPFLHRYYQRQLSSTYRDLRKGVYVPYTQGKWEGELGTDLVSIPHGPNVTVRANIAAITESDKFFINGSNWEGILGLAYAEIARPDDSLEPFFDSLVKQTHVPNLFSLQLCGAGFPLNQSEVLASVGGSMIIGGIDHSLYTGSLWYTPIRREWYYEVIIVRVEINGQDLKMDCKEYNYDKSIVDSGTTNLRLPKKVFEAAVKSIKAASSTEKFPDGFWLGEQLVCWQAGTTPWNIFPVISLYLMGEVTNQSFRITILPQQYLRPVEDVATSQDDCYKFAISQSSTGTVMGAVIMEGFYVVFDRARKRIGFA
# In short: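 Recombinant human BACE-1 catalytic domain (3 nM in 10 μl) preincubated with inhibitor 30 min at 30° C, pH 5.0 acetate buffer with 7.5% DMSO, then 200 nM final QSY7-APPswe-Eu substrate for 1.5 h; 620 nm time-resolved fluorescence read. IC50 from nonlinear regression converted to Ki by Cheng-Prusoff using Km 8 μM.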
# CSF Aβ40 = settings: cited from earlier work
# BACE-1 [3] = biological target: T1, BACE-1; test: BACE-1 Cellular Assay (Aβ in HEK293-APPswe/lon cells); type: cell-based; settings: 4 hours
# In short: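 HEK293 cells stably expressing human APP with Swedish and London FAD mutations, cultured at 37° C., 5% CO2. Aβ40 or Aβ42 in conditioned media measured by electrochemiluminescent ELISA (WO2 capture; G2-10 or G2-11 detection). IC50 from variable-slope sigmoidal fit of signal versus compound concentration.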
# Target sequence in this assay (P56817 46-501): as the sequence (P56817 46-501, species assumed) above
SMILES,Ki (BACE-1 [1]),In Vitro Phospholipidosis Assay: Mean NBD-PE Inclusion Count (Fold over control) (HepG2 cells),pKi [2],Aβ reduction in vivo in rat (Δ% CSF Aβ40 @ 10 mpk) (ii) Data reported in US′109 (CSF Aβ40),IC50 (BACE-1 [3])
"COc1cnc2c(Nc3ccc(F)c([C@]4(C)CS(=O)(=O)C(C)(C)C(N)=N4)c3)nccc2n1 [Ex 47 of WO2014059185, reference compound]",2.9 nM,13 Fold over control,8.48,−82%,–
"C[C@@]1(c2nc(Nc3nccc4cc(C#N)cnc34)ncc2F)CS(=O)(=O)[C@@](C)(C2CC2)C(N)=N1 [Example 5, 8-({4-[(3R,6S)-6-cyclopropyl-5-imino-3,6-dimethyl-1,1-dioxidothiomorpholin-3-yl]-5-fluoropyrimidin-2-yl}amino)-1,7-naphthyridine-3-carbonitrile]",–,1.3 Fold over control,8.06,–,10 nM
"COc1cnc2c(Nc3cc([C@]4(C)CS(=O)(=O)[C@@](C)(C5CC5)C(N)=N4)c(F)cn3)nccc2c1 [Example 6, N-{4-[(3R,6S)-6-cyclopropyl-5-imino-3,6-dimethyl-1,1-dioxidothiomorpholin-3-yl]-5-fluoropyridin-2-yl}-3-methoxy-1,7-naphthyridin-8-amine]",–,3.1 Fold over control,8.59,–,3 nM
"COc1cnc2c(Nc3ccc(F)c([C@]4(C)CS(=O)(=O)[C@@](C)(C5CC5)C(N)=N4)c3)nccc2c1 [Example 14, N-{3-[(3R,6S)-6-cyclopropyl-5-imino-3,6-dimethyl-1,1-dioxidothiomorpholin-3-yl]-4-fluorophenyl}-3-methoxy-1,7-naphthyridin-8-amine]",–,–,8.03,–,21 nM
"C[C@@]1(c2cc(Nc3ncnc4cc(C#N)cnc34)ccc2F)CS(=O)(=O)[C@@](C)(C2CC2)C(N)=N1 [Example 16, 4-({3-[(3R,6S)-6-cyclopropyl-5-imino-3,6-dimethyl-1,1-dioxidothiomorpholin-3-yl]-4-fluorophenyl}amino)pyrido[3,2-d]pyrimidine-7-carbonitrile]",–,–,8.66,–,2.6 nM
"C[C@@]1(c2cc(Nc3nccc4cc(C#N)cnc34)ccc2F)CS(=O)(=O)[C@@](C)(C2CC2)C(N)=N1 [Example 18, 8-({3-[(3R,6S)-6-cyclopropyl-5-imino-3,6-dimethyl-1,1-dioxidothiomorpholin-3-yl]-4-fluorophenyl}amino)-1,7-naphthyridine-3-carbonitrile]",–,–,8.80,–,4.8 nM
"COc1cnc2c(Nc3ccc(F)c([C@]4(C)CS(=O)(=O)[C@@](C)(C5CC5)C(N)=N4)c3)ncnc2n1 [Example 22, (2S,5R)-2-cyclopropyl-5-(2-fluoro-5-((7-methoxypteridin-4-yl)amino)phenyl)-3-imino-2,5-dimethylthiomorpholine 1,1-dioxide]",–,0.9 Fold over control,7.85,–,15 nM
"CC1(C)C(=N)N[C@](C)(c2cc(Nc3noc4cc(F)cnc34)ccc2F)CS1(=O)=O [WO′426 Ex. 30b, reference compound]",–,–,7.72,–,82 nM
